Source: the NIST ThermoML archive (doi:10.1021/acs.jced.8b01027)

Test: xn = mol fraction of the nth substance listed
Conditions: Liquid, isochoric method, x1 = 0.1965

CCCCCCCC [octane] + O=C=O
mass density [kg/m3]
Conditions | 313.05 K | 322.96 K | 332.84 K
8000 kPa | 740.9 | – | –
9000 kPa | 750.1 | 716.1 | –
10000 kPa | 758.3 | 724.1 | –
11000 kPa | 765.4 | 731.9 | –
12000 kPa | 771.9 | 739.1 | –
13000 kPa | 777.9 | 745.8 | –
14000 kPa | 783.5 | 752 | –
15000 kPa | 788.7 | 757.7 | –
16000 kPa | 793.6 | 763.1 | 732.9
17000 kPa | 798.2 | 768.2 | 739.2
18000 kPa | 802.7 | 772.9 | 745.1
19000 kPa | – | 777.5 | 750.6
19170 kPa | 807 | – | –
20000 kPa | 811.1 | 781.8 | 755.8
21000 kPa | 815 | 786 | –
21020 kPa | – | – | 760.8
22000 kPa | 818.7 | 789.9 | –
22020 kPa | – | – | 765.4
22960 kPa | – | 793.6 | –
22980 kPa | – | – | 769.7
22990 kPa | 822.2 | – | –
23960 kPa | – | 797.3 | –
23990 kPa | – | – | 773.9
24000 kPa | 825.6 | – | –
24550 kPa | 827.5 | – | –
24790 kPa | – | – | 777.1
